Measured values from patent publication US20110288115A1, “TREATMENT OF VAGALLY-MEDIATED SPECTRUM DISORDERS” (AVMEDIS LLC, priority 2010, published 2011).

Columns and labels:
[1] = system: patient suffering from alcohol dependence; assay: Treatment of alcohol abuse in a patient with alcohol dependence; assay type: in vivo; settings: person; 5 mg per day via nasal spray; within one month; patient report
Procedure: The patient is a person suffering from alcohol dependence and complaining of symptoms including abdominal pain, confusion, nausea and vomiting, neglecting to eat, and shaking in the morning. The patient is prescribed granisetron 5 mg per day taken via nasal spray.

[2] = system: patient with panic disorder; assay: Treatment of panic disorder in a patient with a 5-HT3 receptor antagonist; assay type: in vivo; settings: patient previously treated largely unsuccessfully with SSRIs, MAOIs, tricyclic antidepressants, benzodiazepines; 8 mg/day to 30 mg/day for 5 to 60 days
Procedure: A patient presents with symptoms including rapid heartbeat, perspiration, dizziness, dyspnea, trembling, uncontrollable fear, and hyperventilation, indicative of panic disorder. The patient has previously been treated, largely unsuccessfully, with selective serotonin reuptake inhibitors (SSRIs), monoamine oxidase inhibitors (MAOIs), tricyclic antidepressants, and benzodiazepines. The patient is treated for 5 to 60 days sequentially with ondansetron administered at a dose of 8 mg/day to 30 mg/day.

Structure (SMILES)	control over drinking [1]	improvement of symptoms (abdominal pain, confusion, nausea and vomiting, neglecting to eat, shaking in the morning) [1]	amelioration of panic disorder (severity and frequency of panic attacks and their symptoms) [2]
CN1C2CCCC1CC(NC(=O)c1nn(C)c3ccccc13)C2 (stereo not drawn) [granisetron]	able to exert control over their drinking	all of the above symptoms have improved considerably	–
Cc1nccn1CC1CCc2c(c3ccccc3n2C)C1=O (stereo not drawn) [ondansetron, 1,2,3,9-tetrahydro-9-methyl-3-[(2-methyl-1H-imidazol-1-yl]methyl]-4H-carbazol-4-one]	–	–	long-lasting amelioration of panic disorder
